Data: patent US20090145840A1, “BLOOD CELL SEPARATION MEMBRANE AND BLOOD RETENTION TOOL USING THE SAME” (ARKRAY, Inc., priority 2003, published 2009)

Test system: blood cells
Experiment: Hemolysis of blood cells on blood retention tool (plasma colored red with Hb)
Type: cell-based
Conditions: tools of Example 4 / Comparative Example 4; glycine as 5% solution
Procedure: Blood cell separation was carried out using this tool, and the presence or absence of hemolysis was determined. In the following, unless otherwise stated, the concentration (%) of a hemolysis inhibitor in a hemolysis inhibitor solution is represented by a percentage (unit: (w/v) %) of the weight (unit: g) of the hemolysis inhibitor with respect to the volume (100 ml) of a solvent.
Hemolysis inhibitors were dissolved in solvents (distilled water) beforehand to prepare hemolysis inhibitor solutions shown in Table 1 below. […]
On the glass filter surface of each of the thus-obtained blood retention tools, 100 μl of whole blood (hematocrit: 38%) was dropped to cause the separation of blood cells and plasma and the development of the plasma. Then, after a lapse of 2 minutes, the presence or absence of hemolysis of the blood cells was determined. […]
Blood retention tools (Example 3-1 and 3-2) were produced in the same manner as in Example 1, except that the following development porous membranes (a filter paper and a cellulose acetate membrane) and blood cell separation porous membranes (glass filters) were used and valine was used as the hemolysis inhibitors. […] Using these blood retention tools, blood cell separation was carried out and the presence or absence of hemolysis and the development of blood cells were determined in the same manner as in Examples 1 and 2.

SMILES: NCC(=O)O [Gly, glycine]
- hemolysis: occurrence of hemolysis was observed
